# In the supplement of paper PMC10307832:
# How the values were obtained:
# Assay in all cases: relative viability (nuclei count vs DMSO), 5 days (fraction); higher = more cells survive
# Elesclomol + Trametinib = compound: CN(NC(=O)CC(=O)NN(C)C(=S)c1ccccc1)C(=S)c1ccccc1 [Elesclomol] + CC(=O)Nc1cccc(-n2c(=O)n(C3CC3)c(=O)c3c(Nc4ccc(I)cc4F)n(C)c(=O)c(C)c32)c1 [Trametinib] (partner 0.02 µM)
# Summary of the method: (§1)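 Lung cancer cell lines, seeded in 1536-well plates, were treated the following day by pin tool with a single drug or with five library-drug doses (not always all listed) in √10 steps on top of a fixed anchor-drug dose. Cells were fixed and nuclei stained in one step after 5 days, and nuclei were counted. Relative viability is the nuclei count for treated wells divided by that for vehicle wells, reported as medians of duplicate plates.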
# Elesclomol + Navitoclax = compound: CN(NC(=O)CC(=O)NN(C)C(=S)c1ccccc1)C(=S)c1ccccc1 [Elesclomol] + CC1(C)CCC(c2ccc(Cl)cc2)=C(CN2CCN(c3ccc(C(=O)NS(=O)(=O)c4ccc(N[C@H](CCN5CCOCC5)CSc5ccccc5)c(S(=O)(=O)C(F)(F)F)c4)cc3)CC2)C1 [Navitoclax] (partner 0.5 µM)
# Summary of the method: as §1
# Elesclomol + Luminespib = compound: CN(NC(=O)CC(=O)NN(C)C(=S)c1ccccc1)C(=S)c1ccccc1 [Elesclomol] + CCNC(=O)c1noc(-c2cc(C(C)C)c(O)cc2O)c1-c1ccc(CN2CCOCC2)cc1 [Luminespib] (partner 0.01 µM)
# Summary of the method: as §1
# Elesclomol + AZD7762 = compound: CN(NC(=O)CC(=O)NN(C)C(=S)c1ccccc1)C(=S)c1ccccc1 [Elesclomol] + NC(=O)Nc1cc(-c2cccc(F)c2)sc1C(=O)N[C@H]1CCCNC1 [AZD7762] (partner 0.2 µM)
# Summary of the method: as §1
# Elesclomol + Decitabine = compound: CN(NC(=O)CC(=O)NN(C)C(=S)c1ccccc1)C(=S)c1ccccc1 [Elesclomol] + Nc1ncn([C@H]2C[C@H](O)[C@@H](CO)O2)c(=O)n1 [Decitabine] (partner 2 µM)
# Summary of the method: as §1
Cell Line,relative viability (Elesclomol + Trametinib; first compound 0.003162 µM),relative viability (Elesclomol + Trametinib; first compound 0.01 µM),relative viability (Elesclomol + Trametinib; first compound 0.03162 µM),relative viability (Elesclomol + Trametinib; first compound 0.1 µM),relative viability (Elesclomol + Navitoclax; first compound 0.003162 µM),relative viability (Elesclomol + Navitoclax; first compound 0.01 µM),relative viability (Elesclomol + Navitoclax; first compound 0.03162 µM),relative viability (Elesclomol + Navitoclax; first compound 0.1 µM),relative viability (Elesclomol + Luminespib; first compound 0.003162 µM),relative viability (Elesclomol + Luminespib; first compound 0.01 µM),relative viability (Elesclomol + Luminespib; first compound 0.03162 µM),relative viability (Elesclomol + Luminespib; first compound 0.1 µM),relative viability (Elesclomol + AZD7762; first compound 0.003162 µM),relative viability (Elesclomol + AZD7762; first compound 0.01 µM),relative viability (Elesclomol + AZD7762; first compound 0.03162 µM),relative viability (Elesclomol + AZD7762; first compound 0.1 µM),relative viability (Elesclomol + Decitabine; first compound 0.003162 µM),relative viability (Elesclomol + Decitabine; first compound 0.01 µM),relative viability (Elesclomol + Decitabine; first compound 0.03162 µM),relative viability (Elesclomol + Decitabine; first compound 0.1 µM)
LC-2-ad,0.888,0.811,0.272,0.197,0.521,0.213,0.062,0.099,0.497,0.47,0.33,0.265,0.874,0.819,0.231,0.136,0.763,0.653,0.391,0.218
LCLC-97TM1,0.198,0.192,0.195,0.0969,0.368,0.298,0.253,0.115,0.791,0.877,0.781,0.247,0.234,0.158,0.16,0.0576,0.258,0.198,0.211,0.131
LK-2,0.468,0.454,0.428,0.115,0.671,0.247,0.142,0.115,0.197,0.172,0.178,0.136,–,0.37,0.279,0.0458,0.288,0.314,0.276,0.113
LOU-NH91,0.814,0.733,0.769,0.643,0.672,0.465,0.307,0.282,0.334,0.339,0.33,0.28,0.769,0.726,0.563,0.471,0.868,0.775,0.756,0.72
LU99A,0.618,0.371,0.58,0.339,0.79,–,0.881,0.132,0.264,0.21,0.227,0.189,0.357,0.329,0.418,0.185,0.904,0.807,0.794,0.556
LXF-289,0.676,0.65,0.663,0.423,0.851,0.924,0.875,0.575,0.676,0.661,0.691,0.316,1.01,1.04,0.974,0.509,0.395,0.39,0.389,0.253
NCI-H23,0.426,0.404,0.208,0.117,0.799,–,0.761,0.144,0.171,0.17,0.154,0.164,0.29,0.164,0.176,0.108,0.338,0.338,0.213,0.147
NCI-H322M,0.497,0.423,0.298,0.217,1.27,–,1.06,0.858,0.311,0.288,0.231,0.14,0.484,0.411,0.259,0.161,0.608,0.511,0.402,0.29
NCI-H441,0.498,0.456,0.418,0.0766,0.712,0.469,0.253,0.103,0.312,0.446,0.29,0.111,1.14,1.07,1.02,0.203,0.22,0.209,0.216,0.127
NCI-H460,0.117,0.203,0.0139,0.0132,0.997,0.379,0.0164,0.0095,0.0311,0.0324,0.0198,0.0215,0.547,0.513,0.232,0.048,0.433,0.396,0.107,0.0381
NCI-H596,0.798,0.865,0.368,0.237,0.912,0.941,0.877,0.189,0.845,0.924,0.787,0.186,1.19,0.943,0.927,0.252,1.03,0.903,0.664,0.241
NCI-H647,0.553,0.347,0.235,0.148,1.05,0.665,0.191,0.0372,0.113,0.0912,0.0748,0.0628,0.539,0.253,0.0623,0.0307,0.355,0.293,0.259,0.0841
NCI-H727,0.412,0.362,0.394,0.376,0.368,0.213,0.109,0.0643,0.388,0.478,0.22,0.123,0.569,0.683,0.572,0.346,0.98,0.836,0.847,0.528
NCI-H838,0.56,0.494,0.518,0.216,1.15,1.06,0.962,0.739,0.33,0.235,0.166,0.109,0.989,0.87,0.735,0.613,0.469,0.433,0.403,0.249
NCI-H1355,0.434,0.408,0.356,0.159,1.03,0.705,0.469,0.14,0.713,0.623,0.413,0.171,0.793,0.7,0.478,0.179,0.352,0.336,0.268,0.2
NCI-H1395,1.01,0.626,0.294,0.215,1.09,0.475,0.286,0.469,0.57,0.498,0.308,0.292,0.438,0.431,0.226,0.202,0.754,0.532,0.318,0.249
